The record followed here is patent US12391679B2, “Benzamide-substituted bicyclic imidazo- and pyrazolo-fused -pyridine, -pyrimide, and -pyridazine compounds for treatment of inflammatory diseases” (ONCO3R Therapeutics BV, priority 2019, dated 2025).

Holding throughout (type): biochemical
One test concerns the target T1, SIK1 (Homo sapiens, UniProt P57059).
T1 construct: purchased Carna Biosciences 02-131
Description: ADP-Glo kinase assay, SIK1. The method in brief: (§1)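 Luminescent ADP-formation read-out: enzyme–substrate mix + ATP, 120 min RT; ATP depletion 40 min RT; ADP→ATP conversion with luciferase/luciferin 30 min RT. Controls: 1% DMSO (negative), 10 μM staurosporine final (positive).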

For the next test, the target named is T2, SIK2 (Homo sapiens, UniProt Q9H0K1).
T2 construct: purchased ThermoFisher Scientific PV4792
T2 sequence (Q9H0K1 whole entry): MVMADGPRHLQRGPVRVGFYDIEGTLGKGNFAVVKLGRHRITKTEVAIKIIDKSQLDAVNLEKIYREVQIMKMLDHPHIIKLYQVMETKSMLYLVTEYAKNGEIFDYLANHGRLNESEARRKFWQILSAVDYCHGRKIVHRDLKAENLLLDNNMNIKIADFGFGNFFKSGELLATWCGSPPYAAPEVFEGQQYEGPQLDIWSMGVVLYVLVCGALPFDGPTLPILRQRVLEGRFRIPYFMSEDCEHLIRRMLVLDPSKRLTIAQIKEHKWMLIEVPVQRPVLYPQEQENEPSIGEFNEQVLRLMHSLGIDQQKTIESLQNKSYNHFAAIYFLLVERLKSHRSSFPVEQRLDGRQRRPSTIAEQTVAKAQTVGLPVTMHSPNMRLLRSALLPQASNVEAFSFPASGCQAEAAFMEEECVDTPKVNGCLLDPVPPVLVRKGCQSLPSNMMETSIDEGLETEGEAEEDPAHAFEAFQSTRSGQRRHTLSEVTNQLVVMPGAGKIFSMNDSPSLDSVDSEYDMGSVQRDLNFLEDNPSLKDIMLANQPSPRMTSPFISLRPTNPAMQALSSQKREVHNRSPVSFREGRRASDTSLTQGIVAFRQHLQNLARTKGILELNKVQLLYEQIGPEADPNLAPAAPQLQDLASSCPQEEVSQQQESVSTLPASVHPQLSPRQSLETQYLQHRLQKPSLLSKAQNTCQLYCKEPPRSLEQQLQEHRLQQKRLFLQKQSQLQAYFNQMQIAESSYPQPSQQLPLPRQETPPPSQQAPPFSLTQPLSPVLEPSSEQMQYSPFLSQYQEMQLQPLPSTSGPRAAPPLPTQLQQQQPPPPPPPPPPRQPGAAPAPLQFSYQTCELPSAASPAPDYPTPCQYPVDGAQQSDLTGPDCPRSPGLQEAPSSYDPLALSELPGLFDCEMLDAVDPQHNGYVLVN
The test is described as follows: ADP-Glo kinase assay, SIK2. The method in brief: as §1

For a further test, the target named is T3, SIK3 (Homo sapiens, UniProt Q9Y2K2).
T3 construct: purchased SignalChem S12-11G-100
T3 sequence (Q9Y2K2 59-365 limits assumed): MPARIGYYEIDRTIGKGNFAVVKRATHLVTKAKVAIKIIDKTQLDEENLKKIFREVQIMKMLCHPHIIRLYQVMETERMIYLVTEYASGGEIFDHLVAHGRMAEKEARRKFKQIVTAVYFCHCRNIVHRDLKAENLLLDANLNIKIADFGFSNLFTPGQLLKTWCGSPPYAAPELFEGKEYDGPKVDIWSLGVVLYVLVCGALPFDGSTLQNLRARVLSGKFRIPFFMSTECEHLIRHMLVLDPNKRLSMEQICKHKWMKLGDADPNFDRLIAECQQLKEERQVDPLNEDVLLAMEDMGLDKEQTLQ
The test is described as follows: ADP-Glo kinase assay, SIK3. The method in brief:
as §1

The mark [1] stands for this setting: ADP-Glo, AMARA 45 μM, 5 μM ATP, 120 min, average IC50.

Where two headings read alike, the source gives them in different places.

T1 sequence (P57059 whole entry): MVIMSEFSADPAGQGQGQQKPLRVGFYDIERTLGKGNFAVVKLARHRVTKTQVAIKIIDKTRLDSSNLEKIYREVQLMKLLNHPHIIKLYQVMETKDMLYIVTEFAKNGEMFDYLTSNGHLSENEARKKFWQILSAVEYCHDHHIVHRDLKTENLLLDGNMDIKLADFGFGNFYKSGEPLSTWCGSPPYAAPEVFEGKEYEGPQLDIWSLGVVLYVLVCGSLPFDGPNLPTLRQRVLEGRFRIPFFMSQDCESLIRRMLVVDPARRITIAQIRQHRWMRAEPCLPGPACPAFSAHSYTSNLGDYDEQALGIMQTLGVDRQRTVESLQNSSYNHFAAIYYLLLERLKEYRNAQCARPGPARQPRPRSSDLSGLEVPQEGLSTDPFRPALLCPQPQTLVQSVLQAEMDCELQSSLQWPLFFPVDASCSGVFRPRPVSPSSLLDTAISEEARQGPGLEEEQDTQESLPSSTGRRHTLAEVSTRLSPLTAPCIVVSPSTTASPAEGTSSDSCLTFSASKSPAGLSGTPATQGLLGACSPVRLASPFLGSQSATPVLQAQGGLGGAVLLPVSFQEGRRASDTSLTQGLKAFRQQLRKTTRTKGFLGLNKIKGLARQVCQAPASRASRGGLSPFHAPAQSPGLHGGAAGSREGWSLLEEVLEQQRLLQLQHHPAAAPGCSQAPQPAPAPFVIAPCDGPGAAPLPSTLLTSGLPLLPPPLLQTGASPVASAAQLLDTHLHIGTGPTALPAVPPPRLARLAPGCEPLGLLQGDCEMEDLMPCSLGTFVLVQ

Take `COC(=O)C1(c2ccn3c(-c4cc(OC)c(C(=O)NC5CC5)c(OC(F)F)c4)cnc3c2)CC1` [Cpd 113, methyl 1-[3-[4-(cyclopropylcarbamoyl)-3-(difluoromethoxy)-5-methoxy-phenyl]imidazo[1,2-a]pyridin-7-yl]cyclopropanecarboxylate]: the values for the IC50 at SIK1, against SIK2 and against SIK3 were more than 500 nM, more than 500 nM and 0.01 to 10 nM, respectively.

For `COc1cc(-c2cnc3cc(C4CCCN(C(=O)OC(C)(C)C)C4)ccn23)cc(OC(F)F)c1C(=O)NC1CC1` (stereo not drawn) [Cpd 64, tert-butyl 3-[3-[4-(cyclopropylcarbamoyl)-3-(difluoromethoxy)-5-methoxy-phenyl]imidazo[1,2-a]pyridin-7-yl]piperidine-1-carboxylate], the results for the IC50 against SIK1, against SIK2 and on SIK3 were more than 500 nM, 100 to 500 nM and 0.01 to 10 nM, respectively.

Regarding `COc1cc(-c2cnc3cc(C4(C#N)CC4)ccn23)cc(OC(F)F)c1C(=O)NC1CC1` [Cpd 33, 4-[7-(1-cyanocyclopropyl)imidazo[1,2-a]pyridin-3-yl]-N-cyclopropyl-2-(difluoromethoxy)-6-methoxy-benzamide], the IC50 is 100 to 500 nM at SIK1, 10 to 100 nM at SIK2 and 0.01 to 10 nM at SIK3.

As for `CCOC(C)(C)c1ccn2c(-c3cc(OC)c(C(=O)NC4CC4)c(OC(F)F)c3)cnc2c1` [Cpd 128, N-cyclopropyl-2-(difluoromethoxy)-4-[7-(1-ethoxy-1-methyl-ethyl)imidazo[1,2-a]pyridin-3-yl]-6-methoxy-benzamide], the IC50 at SIK1 is more than 500 nM; on SIK2, more than 500 nM; at SIK3 it was 10 to 100 nM.

As for `COc1cc(-c2cnc3cc(C(C)(C)C#N)ccn23)cc(OC(F)F)c1C(=O)NCC(F)F` [Cpd 70, 4-[7-(1-cyano-1-methyl-ethyl)imidazo[1,2-a]pyridin-3-yl]-N-(2,2-difluoroethyl)-2-(difluoromethoxy)-6-methoxy-benzamide], the IC50 against SIK1 is more than 500 nM; on SIK2, more than 500 nM; against SIK3, 0.01 to 10 nM.

For the compound `COc1cc(-c2cnc3cc(C(C)(C)CN4CCOCC4)ccn23)cc(OC(F)F)c1C(=O)NC1CC1` [Cpd 160, N-cyclopropyl-2-(difluoromethoxy)-4-[7-(1,1-dimethyl-2-morpholino-ethyl)imidazo[1,2-a]pyridin-3-yl]-6-methoxy-benzamide], the IC50 against SIK1 was more than 500 nM; at SIK2, more than 500 nM; against SIK3 it was 10 to 100 nM.

`COc1cc(-c2cnc3cc(C(C)(C)C#N)ccn23)cc(OC)c1C(=O)NC1CC1` [Cpd 28, 4-[7-(1-cyano-1-methyl-ethyl)imidazo[1,2-a]pyridin-3-yl]-N-cyclopropyl-2,6-dimethoxy-benzamide]: the IC50 is more than 500 nM at SIK1, more than 500 nM against SIK2 and 10 to 100 nM on SIK3.

Consider `COc1cc(-c2cnc3cc(C(C)N4CCCCC4)ccn23)cc(OC(F)F)c1C(=O)NC1CC1` (stereo not drawn) [Cpd 146, N-cyclopropyl-2-(difluoromethoxy)-6-methoxy-4-[7-[1-(1-piperidyl)ethyl]imidazo[1,2-a]pyridin-3-yl]benzamide], for which the IC50 on SIK1 is more than 500 nM; at SIK2, more than 500 nM; against SIK3, 10 to 100 nM.

`COc1cc(-c2cnc3cc(C4CN(C(C)=O)C4)ccn23)cc(OC(F)F)c1C(=O)NC1CC1` [Cpd 63, 4-[7-(1-acetylazetidin-3-yl)imidazo[1,2-a]pyridin-3-yl]-N-cyclopropyl-2-(difluoromethoxy)-6-methoxy-benzamide]: the IC50 was in the range of 100 to 500 nM at SIK1, 10 to 100 nM at SIK2 and 0.01 to 10 nM on SIK3.

Take `COc1cc(-c2cnc3cc(C(C)(O)C4CC4)ccn23)cc(OC(F)F)c1C(=O)NC1CC1` (stereo not drawn) [Cpd 138, N-cyclopropyl-4-[7-(1-cyclopropyl-1-hydroxy-ethyl)imidazo[1,2-a]pyridin-3-yl]-2-(difluoromethoxy)-6-methoxy-benzamide]: the IC50 against SIK1 was more than 500 nM; against SIK2, more than 500 nM; at SIK3, 10 to 100 nM.

In the case of `COc1cc(-c2cnc3cc(C(C)(C)C#N)ccn23)cc(OC(F)F)c1C(=O)N1CC(F)(F)C1` [Cpd 69, 2-[3-[4-(3,3-difluoroazetidine-1-carbonyl)-3-(difluoromethoxy)-5-methoxy-phenyl]imidazo[1,2-a]pyridin-7-yl]-2-methyl-propanenitrile], the IC50 is more than 500 nM at SIK1, more than 500 nM against SIK2 and 0.01 to 10 nM against SIK3.

`COc1cc(-c2cnc3cc(C(C)(C)N)ccn23)cc(OC(F)F)c1C(=O)NC1CC1` [Cpd 106, 4-[7-(1-amino-1-methyl-ethyl)imidazo[1,2-a]pyridin-3-yl]-N-cyclopropyl-2-(difluoromethoxy)-6-methoxy-benzamide]: the half-inhibitory concentration (IC50) against SIK1 is more than 500 nM; against SIK2 it was more than 500 nM; at SIK3 it was 0.01 to 10 nM.

As for `COc1cc(-c2cnn3cc(C4CCOCC4)cnc23)cc(OC(F)F)c1C(=O)NC1CC1` [Cpd 95, N-cyclopropyl-2-(difluoromethoxy)-6-methoxy-4-(6-tetrahydropyran-4-ylpyrazolo[1,5-a]pyrimidin-3-yl)benzamide], the IC50 at SIK1 is more than 500 nM; on SIK2 it was 100 to 500 nM; on SIK3, 0.01 to 10 nM.

`CC[C@](C)(O)c1ccn2c(-c3cc(OC)c(C(=O)NC4CC4)c(OC(F)F)c3)cnc2c1` (single isomer, unassigned) [Cpd 164, N-cyclopropyl-2-(difluoromethoxy)-4-[7-(1-hydroxy-1-methyl-propyl)imidazo[1,2-a]pyridin-3-yl]-6-methoxy-benzamide]: the IC50 against SIK1 is more than 500 nM; against SIK2, more than 500 nM; on SIK3 it was 10 to 100 nM.

On to `COc1cc(-c2cnc3cc([C@@](C)(O)C4CC4)ccn23)cc(OC(F)F)c1C(=O)NC1CC1` (single isomer, unassigned) [Cpd 162, N-cyclopropyl-4-[7-(1-cyclopropyl-1-hydroxy-ethyl)imidazo[1,2-a]pyridin-3-yl]-2-(difluoromethoxy)-6-methoxy-benzamide], for which the figures for the IC50 on SIK1, at SIK2 and at SIK3 were more than 500 nM, more than 500 nM and 10 to 100 nM, respectively.

Turning to `CC[C@](C)(O)c1ccn2c(-c3cc(OC)c(C(=O)NC4CC4)c(OC(F)F)c3)cnc2c1` (single isomer, unassigned) [Cpd 165, N-cyclopropyl-2-(difluoromethoxy)-4-[7-(1-hydroxy-1-methyl-propyl)imidazo[1,2-a]pyridin-3-yl]-6-methoxy-benzamide], the IC50 is more than 500 nM on SIK1 (setting [1]), more than 500 nM against SIK2 (setting [1]) and 10 to 100 nM against SIK3 (setting [1]).

`COc1cc(-c2cnc3cc([C@@](C)(O)C4CC4)ccn23)cc(OC(F)F)c1C(=O)NC1CC1` (single isomer, unassigned) [Cpd 163, N-cyclopropyl-4-[7-(1-cyclopropyl-1-hydroxy-ethyl)imidazo[1,2-a]pyridin-3-yl]-2-(difluoromethoxy)-6-methoxy-benzamide]: the half-inhibitory concentration (IC50) against SIK1 (setting [1]) was more than 500 nM; against SIK2 (setting [1]), more than 500 nM; at SIK3 (setting [1]), 10 to 100 nM.

As to `COc1cc(-c2cnc3cc(C4COCCN4C)ccn23)cc(OC(F)F)c1C(=O)NC1CC1` (stereo not drawn) [Cpd 193, N-cyclopropyl-2-(difluoromethoxy)-6-methoxy-4-[7-(4-methylmorpholin-3-yl)imidazo[1,2-a]pyridin-3-yl]benzamide], the values for the IC50 against SIK1, at SIK2 and against SIK3 were more than 500 nM, more than 500 nM and 10 to 100 nM, respectively.

Consider `COc1cc(-c2cnc3cc(C(C)(C)C#N)ccn23)cc(OC(F)F)c1C(=O)N1CC(F)C1` [Cpd 96, 2-[3-[3-(difluoromethoxy)-4-(3-fluoroazetidine-1-carbonyl)-5-methoxy-phenyl]imidazo[1,2-a]pyridin-7-yl]-2-methyl-propanenitrile], for which the IC50 is more than 500 nM against SIK1, more than 500 nM at SIK2 and 0.01 to 10 nM at SIK3.

As for `COc1cc(-c2cnn3cc(C4(C#N)CC4)ccc23)cc(OC(F)F)c1C(=O)N[C@@H]1C[C@@H]1F` [Cpd 235, 4-[6-(1-cyanocyclopropyl)pyrazolo[1,5-a]pyridin-3-yl]-2-(difluoromethoxy)-N-[(1R,2S)-2-fluorocyclopropyl]-6-methoxy-benzamide], the IC50 was 100 to 500 nM against SIK1, 10 to 100 nM against SIK2 and 0.01 to 10 nM on SIK3.

With `COc1cc(-c2cnc3cc(C4CCOCC4)c(F)cn23)cc(OC(F)F)c1C(=O)NC1CC1` [Cpd 166, N-cyclopropyl-2-(difluoromethoxy)-4-(6-fluoro-7-tetrahydropyran-4-yl-imidazo[1,2-a]pyridin-3-yl)-6-methoxy-benzamide], the IC50 at SIK1 is more than 500 nM; at SIK2 it was 100 to 500 nM; against SIK3 it was 0.01 to 10 nM.

Take `COc1cc(-c2cnc3cc(C(C)O)ccn23)cc(OC(F)F)c1C(=O)NC1CC1` (stereo not drawn) [Cpd 140, N-cyclopropyl-2-(difluoromethoxy)-4-[7-(1-hydroxyethyl)imidazo[1,2-a]pyridin-3-yl]-6-methoxy-benzamide]: the values for the IC50 on SIK1, at SIK2 and at SIK3 were 100 to 500 nM, 100 to 500 nM and 10 to 100 nM, respectively.

As to `COc1cc(-c2cnc3cc(C(C)(C)CN)ccn23)cc(OC(F)F)c1C(=O)NC1CC1` [Cpd 93, 4-[7-(2-amino-1,1-dimethyl-ethyl)imidazo[1,2-a]pyridin-3-yl]-N-cyclopropyl-2-(difluoromethoxy)-6-methoxy-benzamide], the IC50 on SIK1 was more than 500 nM; on SIK2, more than 500 nM; against SIK3, 10 to 100 nM.

For `COc1cc(-c2cnn3cc(C(C)(C)COS(C)(=O)=O)ccc23)cc(OC(F)F)c1C(=O)N[C@@H]1C[C@@H]1F` [Cpd 267, [2-[3-[3-(difluoromethoxy)-4-[[(1R,2S)-2-fluorocyclopropyl]carbamoyl]-5-methoxy-phenyl]pyrazolo[1,5-a]pyridin-6-yl]-2-methyl-propyl]methanesulfonate], the IC50 against SIK1 is more than 500 nM; against SIK2 it was more than 500 nM; on SIK3, 0.01 to 10 nM.
